Assays:
Format in all cases: biochemical
[1] = target: Estrogen Receptor beta (ER-β) LBD (Homo sapiens, UniProt Q92731); experiment: TR-FRET PGC1-α coactivator recruitment assay, ERβ LBD; conditions: Estradiol = EC80; for IC50: TR-FRET, ± SEM (n = 6), read-out: NR LBDs IC50 (μM) ER-β; for effect on ERβ LBD recruitment of fluorescent labelled PGC1-α coactivator: maximal concentration of 100 μM
Procedure: (§1) Compound binding affinities for Progesterone Receptor (PR), Glucocorticoid Receptor (GR), Estrogen Receptor alpha and Estrogen Receptor beta were determined using TR-FRET (Table 2).
(§2) Selectivity of the diarylhydrazide scaffold for the AR was determined through a TR-FRET assay in ERα (FIGS. 8A & 9A1) and ERR (FIGS. 8B & 9A2). […] The non-LBP nature of this inhibition was confirmed by a FP assay (FIGS. 9C, 9B1 & 9B2).
(§3) Lanthascreen TR-FRET AR Coactivator Assay kit (Invitrogen, cat no. PV4381) was used to screen for potential coactivator disruptors.
(§4) TR FRET values were calculated at 10 flashes per well, using a delay time of 100 μs and integration time 200 μs as recommended by the Invitrogen assay guidelines. […] A serial dilution of compounds was firstly prepared in 100×DMSO (Sigma-Aldrich) starting from the maximum desired concentration to achieve a 12 point range concentration using 96-well polypropylene plates (Nalgene Nunc, Rochester, N.Y.). Each 100× solution was diluted to 2× concentration with TR-FRET co-regulator buffer A (Invitrogen proprietary buffer), yielding a final concentration of 1% DMSO in each well.
(§5) D11-FxxLF and Tb antibody were premixed in light protecting vials prior to use. A final concentration of DTT 5 mM was used in the assay buffer in order to prevent protein degradation. All plates (agonist and antagonist mode) were incubated between 2 and 4 hours at room temperature protected from light prior to TR-FRET measurement. […] Data was fitted using the sigmoidal dose response (variable slope) available from Graphpad Prism 5. Y=Bottom+(Top-Bottom)/(1+10^((Log IC50−X)*HillSlope))
(§6) The same procedure was used for AR T877A (Invitrogen cat no. PV4667), PR (Invitrogen cat no. PV4666), ER-α (Invitrogen cat no. PV4544), ER-β (Invitrogen cat no. PV4541) and GR (Invitrogen cat no. PV4683). The assay was adapted to exclude possible non-specific aggregation mechanism of inhibition by adding very low concentration of detergent Triton X-100 (0.001%) to the assay buffer following the Shoichet review guidelines [Shoichet BK (2006) Screening in a spirit haunted world. Drug Discov Today 11:607-615].

[2] = target: T1, Progesterone Receptor (PR) LBD (Homo sapiens, UniProt P06401); experiment: TR-FRET SRC1-4 coactivator recruitment assay, PR LBD; conditions: Progesterone = EC80; for IC50: TR-FRET, ± SEM (n = 6), read-out: NR LBDs IC50 (μM) PR; for effect on PR LBD recruitment of fluorescent labelled SRC1-4 coactivator: maximal concentration of 100 μM
T1 construct: purchased Invitrogen PV4666
T1 sequence (P06401 679-913 limits assumed): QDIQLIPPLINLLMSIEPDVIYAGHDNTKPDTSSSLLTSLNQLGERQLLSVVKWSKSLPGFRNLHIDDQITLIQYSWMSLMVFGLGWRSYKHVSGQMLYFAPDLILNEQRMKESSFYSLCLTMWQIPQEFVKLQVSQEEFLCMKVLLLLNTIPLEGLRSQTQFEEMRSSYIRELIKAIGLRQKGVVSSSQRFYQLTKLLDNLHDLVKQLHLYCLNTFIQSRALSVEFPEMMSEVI
Procedure: as §1, §3, §4, §5, §6

[3] = target: T2, AR-LBD wt (Homo sapiens, UniProt P10275); experiment: Lanthascreen TR-FRET AR coactivator (D11-FxxLF) assay, AR-LBD wt; conditions: for type of AR antagonism (full / partial): TR-FRET in agonist and antagonist mode; for IC50: TR-FRET, D11-FxxLF peptide, DHT = EC80, read-out: Activity (AR wt TR-FRET)
T2 sequence (P10275 669-900 limits assumed): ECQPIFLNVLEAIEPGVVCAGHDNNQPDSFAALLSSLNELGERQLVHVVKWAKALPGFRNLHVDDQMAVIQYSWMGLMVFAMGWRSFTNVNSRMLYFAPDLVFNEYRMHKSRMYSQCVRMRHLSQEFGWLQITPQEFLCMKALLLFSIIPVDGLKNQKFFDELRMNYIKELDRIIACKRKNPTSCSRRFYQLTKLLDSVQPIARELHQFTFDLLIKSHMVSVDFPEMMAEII

[4] = target: T3, Glucocorticoid Receptor (GR) LBD (Homo sapiens, UniProt P04150); experiment: TR-FRET SRC1-4 coactivator recruitment assay, GR LBD; conditions: Dexamethasone = EC80; for effect on SRC1-4 recruitment by GR LBD: 100 μM to 12.5 μM or single point 100 μM; for IC50: TR-FRET, ± SEM (n = 6), read-out: NR LBDs IC50 (μM) GR
T3 construct: purchased Invitrogen PV4683
T3 sequence (P04150 524-758 limits assumed): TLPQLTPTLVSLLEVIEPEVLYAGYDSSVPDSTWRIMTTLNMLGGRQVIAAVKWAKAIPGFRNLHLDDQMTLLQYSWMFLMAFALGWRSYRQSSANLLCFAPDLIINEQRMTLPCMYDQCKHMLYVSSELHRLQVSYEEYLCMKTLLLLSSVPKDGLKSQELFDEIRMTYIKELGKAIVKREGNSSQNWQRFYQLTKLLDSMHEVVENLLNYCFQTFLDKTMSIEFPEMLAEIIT
Procedure: as §1
Dexamethasone bound receptor recruitment of the fluorescently labelled SCR1-4 coactivator was unimpaired at screening concentrations up to 100 μM for all the diarylhydrazides evaluated (FIG. 5).
as §3, §4, §5, §6

[5] = target: T4, Estrogen Receptor alpha (ER-α) LBD (Homo sapiens, UniProt P03372); experiment: TR-FRET PGC1-α coactivator recruitment assay, ERα LBD; conditions: Estradiol = EC80; for IC50: TR-FRET, ± SEM (n = 6), read-out: NR LBDs IC50 (μM) ER-α; for effect on ERα LBD recruitment of fluorescent labelled PGC1-α coactivator: maximal concentration of 100 μM
T4 sequence (P03372 311-547 limits assumed): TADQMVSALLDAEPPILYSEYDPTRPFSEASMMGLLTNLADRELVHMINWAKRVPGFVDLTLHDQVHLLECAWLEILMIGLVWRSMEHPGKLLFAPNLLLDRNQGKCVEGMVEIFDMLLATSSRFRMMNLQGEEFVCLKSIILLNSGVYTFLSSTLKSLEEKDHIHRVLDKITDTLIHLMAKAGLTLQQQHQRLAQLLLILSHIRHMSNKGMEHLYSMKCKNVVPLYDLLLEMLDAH
Procedure: as §1, §2, §3, §4, §5, §6

Estrogen Receptor beta (ER-β) LBD, sequence (Q92731 264-498 limits assumed): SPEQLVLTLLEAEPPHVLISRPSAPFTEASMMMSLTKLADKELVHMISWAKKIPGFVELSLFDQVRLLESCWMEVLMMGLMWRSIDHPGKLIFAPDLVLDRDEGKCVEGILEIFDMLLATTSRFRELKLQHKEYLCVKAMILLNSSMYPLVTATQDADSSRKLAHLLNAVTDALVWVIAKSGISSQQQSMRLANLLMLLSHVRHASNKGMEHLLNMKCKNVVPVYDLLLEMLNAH

| SMILES | IC50 [1] | effect on ERβ LBD recruitment of fluorescent labelled PGC1-α coactivator [1] | IC50 [2] | effect on PR LBD recruitment of fluorescent labelled SRC1-4 coactivator [2] | type of AR antagonism (full / partial) [3] | IC50 [3] | effect on SRC1-4 recruitment by GR LBD [4] | IC50 [4] | IC50 [5] | effect on ERα LBD recruitment of fluorescent labelled PGC1-α coactivator [5] | effect on ERβ recruitment of fluorescent labelled PGC1-α ([1]; 100 μM to 45 nM) | effect on PR recruitment of fluorescent labelled SRC1-4 ([2]; 100 μM to 45 nM) | effect on ERα recruitment of fluorescent labelled PGC1-α ([5]; 100 μM to 45 nM) |
| --- | --- | --- | --- | --- | --- | --- | --- | --- | --- | --- | --- | --- | --- |
| O=C(N/N=C/c1cccc(Cl)c1)c1cc2ccccc2cc1O [MDG491] | > 100 µM | inhibit | 50 to 100 µM | inhibit | full AR antagonists | 42.7 ± 3.5 µM | do not affect | > 100 µM | > 100 µM | inhibit |  |  |  |
| Cc1cccc(/C=N/NC(=O)c2cc3ccccc3cc2O)c1O [MDG616] |  | inhibit |  | inhibit | full AR antagonists | 13.2 ± 2.8 µM | do not affect | > 100 µM |  | inhibit |  |  |  |
| O=C(N/N=C/c1ccccc1O)c1cc2ccccc2cc1O [MDG608] |  | inhibit | > 100 µM | inhibit | full AR antagonists | 55.2 ± 19.2 µM | do not affect | > 100 µM | > 100 µM | inhibit |  |  |  |
| O=C(N/N=C/c1cc([N+](=O)[O-])ccc1O)c1cc2ccccc2cc1O [MDG614] | > 100 µM | inhibit |  | inhibit | full AR antagonists | 33.4 ± 4.7 µM | do not affect | > 100 µM | > 100 µM | inhibit |  |  |  |
| COC(=O)c1ccc(O)c(/C=N/NC(=O)c2cc3ccccc3cc2O)c1 [MDG629] |  | inhibit |  | inhibit | full AR antagonists | 60.8 µM | do not affect | > 100 µM |  | inhibit |  |  |  |
| COc1ccc(O)c(/C=N/NC(=O)c2cc3ccccc3cc2O)c1 [MDG612] |  | inhibit | 50 to 100 µM | inhibit | full AR antagonists | 52.9 ± 13.5 µM | do not affect | > 100 µM |  | inhibit |  |  |  |
| O=C(N/N=C/c1cc(Cl)ccc1O)c1cc2ccccc2cc1O [MDG605] | 50 to 100 µM | inhibit |  | inhibit | full AR antagonists | 10.3 ± 1.4 µM | do not affect | > 100 µM | 50 to 100 µM | inhibit |  |  |  |
| COc1cccc(/C=N/NC(=O)c2cc3ccccc3cc2O)c1O [MDG617] |  | inhibit |  | inhibit | full AR antagonists | 12.2 ± 0.5 µM | do not affect | > 100 µM |  | inhibit |  |  |  |
| O=C(N/N=C/c1cc(O)ccc1O)c1cc2ccccc2cc1O [MDG611] |  | inhibit |  | inhibit | full AR antagonists | 39.9 ± 16.9 µM | do not affect | > 100 µM |  | inhibit |  |  |  |
| CCCOc1ccc(/C=N/NC(=O)c2cc3c(ccc4ccccc43)o2)cc1 [MDG508] | 2.9 µM |  | 5.9 µM |  | full AR antagonists |  | do not affect | > 100 µM | 4 ± 1.4 µM |  | partially inhibit | partially inhibit | partially inhibit |
| O=C(O)c1ccc(O)c(/C=N/NC(=O)c2cc3ccccc3cc2O)c1 [MDG630] |  | inhibit |  | inhibit | full AR antagonists | 43.5 ± 3.7 µM | do not affect | > 100 µM |  | inhibit |  |  |  |
